Reference: PubChem BioAssay AID248 (DTP/NCI, 2004)
Values joined by “and” are separate entries in the source; they are usually repeats but may differ in a detail not shown here. Equal entries are not always repeated. Toxic doses and inconclusive results are not listed. No stated cut-off is given here; in the data, active means T/C of 150% or more; inactive means T/C below 125%.

System: L1210 leukemia ip in BDF1 mice, survival T/C
Test: NCI In Vivo Anticancer Drug Screen. Data for tumor model L1210 Leukemia (intraperitoneal) in B6D2F1 (BDF1) mice
Settings: endpoint: mean survival time, higher = longer survival
How it was run: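 Transplanted-tumor mice were given test agent; controls received vehicle only. Survival readings from the two groups were divided (treated over control).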

[1] = dose: 100.0 mg/kg/injection, schedule: Q04DX002 (ip), vehicle: saline
[2] = dose: 100.0 mg/kg/injection, schedule: Q01DX009 (ip), vehicle: saline with Tween-80
[3] = dose: 50.0 mg/kg/injection, schedule: Q01DX001 (ip), vehicle: carboxymethylcellulose (CMC)
[4] = dose: 100.0 mg/kg/injection, schedule: Q01DX001 (ip), vehicle: carboxymethylcellulose (CMC)
[5] = dose: 200.0 mg/kg/injection, schedule: Q01DX001 (ip), vehicle: carboxymethylcellulose (CMC)
[6] = dose: 400.0 mg/kg/injection, schedule: Q01DX001 (ip), vehicle: carboxymethylcellulose (CMC)
[7] = dose: 50.0 mg/kg/injection, schedule: Q04DX003 (ip), vehicle: Klucel (hydroxypropylcellulose) (HPC)
[8] = dose: 100.0 mg/kg/injection, schedule: Q04DX003 (ip), vehicle: Klucel (hydroxypropylcellulose) (HPC)
[9] = dose: 100.0 mg/kg/injection, schedule: Q04DX002 (ip), vehicle: saline with Tween-80
[10] = dose: 25.0 mg/kg/injection, schedule: Q01DX009 (ip), vehicle: saline
[11] = dose: 50.0 mg/kg/injection, schedule: Q01DX009 (ip), vehicle: saline
[12] = dose: 100.0 mg/kg/injection, schedule: Q01DX009 (ip), vehicle: Klucel (hydroxypropylcellulose) (HPC)
[13] = dose: 200.0 mg/kg/injection, schedule: Q01DX009 (ip), vehicle: Klucel (hydroxypropylcellulose) (HPC)
[14] = dose: 200.0 mg/kg/injection, schedule: Q04DX003 (ip), vehicle: Klucel (hydroxypropylcellulose) (HPC)
[15] = dose: 400.0 mg/kg/injection, schedule: Q01DX009 (ip), vehicle: Klucel (hydroxypropylcellulose) (HPC)
[16] = dose: 100.0 mg/kg/injection, schedule: Q04DX003 (ip), vehicle: saline
[17] = dose: 200.0 mg/kg/injection, schedule: Q04DX003 (ip), vehicle: saline

Measured: T/C

Cc1ccc(Nc2cccc3c2C(=O)c2c(Nc4ccc(C)cc4C)cccc2C3=O)c(C)c1
inactive: [1] 97 % of control | dose: 200.0 mg/kg/injection, schedule: Q04DX002 (ip), vehicle: saline 117 % of control | dose: 400.0 mg/kg/injection, schedule: Q04DX002 (ip), vehicle: saline 100 % of control

Nc1cc2c3ccccc3ccc2c2ccccc12
inactive: dose: 67.0 mg/kg/injection, schedule: Q01DX009 (ip), vehicle: saline with Tween-80 105 % of control | [2] 105 % of control | dose: 150.0 mg/kg/injection, schedule: Q01DX009 (ip), vehicle: saline with Tween-80 96 % of control | dose: 225.0 mg/kg/injection, schedule: Q01DX009 (ip), vehicle: saline with Tween-80 97 % of control

COc1cc(C)cccc1=O
inactive: [3] 107 % of control | [4] 107 % of control | [5] 96 % of control | [6] 98 % of control

CC(=O)CC(C)=O.CCCCC(C[C-]=O)N(CC)CC.[Pd+2] (stereo not given)
inactive: dose: 2.4 mg/kg/injection, schedule: Q04DX003 (ip), vehicle: distilled water + Tween-80 97 % of control | dose: 4.7 mg/kg/injection, schedule: Q04DX003 (ip), vehicle: distilled water + Tween-80 101 % of control | dose: 9.4 mg/kg/injection, schedule: Q04DX003 (ip), vehicle: distilled water + Tween-80 98 % of control | dose: 18.8 mg/kg/injection, schedule: Q04DX003 (ip), vehicle: distilled water + Tween-80 90 % of control

CCOC(=O)Nc1cc(Nc2ccc(Cl)cc2)c2ncc(C)nc2n1
inactive: dose: 25.0 mg/kg/injection, schedule: Q04DX003 (ip), vehicle: Klucel (hydroxypropylcellulose) (HPC) 102 % of control | [7] 102 % of control | [8] 96 % of control

CC(C)C[CH2][Pb]([CH2]CC(C)C)([CH2]CC(C)C)[O]C(=O)C(C)C
inactive: dose: 1.56 mg/kg/injection, schedule: Q01DX009 (ip), vehicle: Klucel (hydroxypropylcellulose) (HPC) 97 % of control | dose: 3.12 mg/kg/injection, schedule: Q01DX009 (ip), vehicle: Klucel (hydroxypropylcellulose) (HPC) 93 % of control | dose: 3.12 mg/kg/injection, schedule: Q04DX002 (ip), vehicle: Klucel (hydroxypropylcellulose) (HPC) 111 % of control | dose: 6.25 mg/kg/injection, schedule: Q04DX002 (ip), vehicle: Klucel (hydroxypropylcellulose) (HPC) 115 % of control

CCN=C(CCl)NS(=O)(=O)c1ccc(C)cc1
inactive: dose: 25.0 mg/kg/injection, schedule: Q04DX002 (ip), vehicle: saline with Tween-80 113 % of control | dose: 50.0 mg/kg/injection, schedule: Q04DX002 (ip), vehicle: saline with Tween-80 109 % of control | [9] 109 % of control

CCN(CC)CCCC(C)Nc1cccc2c1C(=O)c1ccccc1C2=O (stereo not given)
inactive: [10] 100 % of control | dose: 25.0 mg/kg/injection, schedule: Q04DX002 (ip), vehicle: saline 95 % of control | [11] 93 % of control | dose: 50.0 mg/kg/injection, schedule: Q04DX002 (ip), vehicle: saline 92 % of control | dose: 100.0 mg/kg/injection, schedule: Q01DX009 (ip), vehicle: saline 93 % of control | [1] 100 % of control and 92 % of control

COc1ccc(Cl)cc1NC(=O)Nc1ccc(Cl)c(Cl)c1
inactive: [12] 95 % of control | [8] 112 % of control | [13] 92 % of control | [14] 89 % of control | [15] 102 % of control | dose: 400.0 mg/kg/injection, schedule: Q04DX003 (ip), vehicle: Klucel (hydroxypropylcellulose) (HPC) 109 % of control

O=c1[nH]cnc2nc(SCc3cccc([N+](=O)[O-])c3)[nH]c12
inactive: dose: 150.0 mg/kg/injection, schedule: Q01DX001 (ip), vehicle: other 89 % of control | dose: 300.0 mg/kg/injection, schedule: Q01DX001 (ip), vehicle: other 87 % of control

CC1(C)/C(=N\N=C2/C3CCC(C3)C2(C)C)C2CCC1C2
inactive: dose: 12.5 mg/kg/injection, schedule: Q01DX009 (ip), vehicle: saline 105 % of control | [10] 100 % of control | dose: 50.0 mg/kg/injection, schedule: Q01DX009 (ip), vehicle: saline with Tween-80 106 % of control | [11] 109 % of control | [16] 109 % of control | [17] 108 % of control

CC(=O)NC(C=O)CC(C=O)CO (stereo not given)
inactive: [17] 110 % of control | dose: 300.0 mg/kg/injection, schedule: Q04DX003 (ip), vehicle: saline 113 % of control

O=C1CCCCC(=O)OCCC1
inactive: dose: 100.0 mg/kg/injection, schedule: Q01DX001 (ip), vehicle: saline 93 % of control | dose: 200.0 mg/kg/injection, schedule: Q01DX001 (ip), vehicle: saline 98 % of control | dose: 400.0 mg/kg/injection, schedule: Q01DX001 (ip), vehicle: saline 88 % of control

CN(C)c1c(-c2ccc(Cl)cc2)cc(-c2ccccc2)[nH]c1=O
inactive: [4] 97 % of control | dose: 100.0 mg/kg/injection, schedule: Q01DX009 (ip), vehicle: acetone 95 % of control | [16] 89 % of control | [5] 91 % of control | dose: 200.0 mg/kg/injection, schedule: Q01DX009 (ip), vehicle: acetone 98 % of control | [17] 89 % of control | [6] 91 % of control | dose: 400.0 mg/kg/injection, schedule: Q01DX009 (ip), vehicle: acetone 93 % of control | dose: 400.0 mg/kg/injection, schedule: Q04DX003 (ip), vehicle: saline 87 % of control

O=C1c2sccc2-c2cccc3cccc1c23
inactive: [7] 98 % of control | [12] 98 % of control | [8] 96 % of control | [13] 106 % of control | [14] 102 % of control | [15] 103 % of control

CC1=C(C)CC2C(=O)c3c(O)ccc(O)c3C(=O)C2C1 (stereo not given)
inactive: [9] 91 % of control | dose: 200.0 mg/kg/injection, schedule: Q04DX002 (ip), vehicle: saline with Tween-80 95 % of control | dose: 400.0 mg/kg/injection, schedule: Q04DX002 (ip), vehicle: saline with Tween-80 91 % of control

O=C(CNc1ccccc1)NCc1ccccc1
inactive: [2] 92 % of control | dose: 200.0 mg/kg/injection, schedule: Q01DX009 (ip), vehicle: saline with Tween-80 95 % of control | dose: 400.0 mg/kg/injection, schedule: Q01DX009 (ip), vehicle: saline with Tween-80 97 % of control

CC#CC1(O)CCC2C3CC(C)C4CC(=O)CCC4(C)C3CCC21C (stereo not given)
inactive: dose: 146.0 mg/kg/injection, schedule: Q01DX Z (sc), vehicle: steriod suspending solution 108 % of control | dose: 222.0 mg/kg/injection, schedule: Q01DX Z (sc), vehicle: steriod suspending solution 112 % of control | dose: 333.0 mg/kg/injection, schedule: Q01DX Z (sc), vehicle: steriod suspending solution 112 % of control | dose: 500.0 mg/kg/injection, schedule: Q01DX Z (sc), vehicle: steriod suspending solution 106 % of control

N#CC(C#N)=Cc1ccc([N+](=O)[O-])s1
inactive: dose: 12.5 mg/kg/injection, schedule: Q04DX002 (ip), vehicle: Klucel (hydroxypropylcellulose) (HPC) 96 % of control | dose: 25.0 mg/kg/injection, schedule: Q04DX002 (ip), vehicle: Klucel (hydroxypropylcellulose) (HPC) 100 % of control

O=S1(=O)/C(=C\C2CCCCC2)c2c1c(-c1ccccc1)c1ccccc1c2-c1ccccc1
inactive: [3] 86 % of control | [5] 92 % of control | [6] 89 % of control
